Patent EP0580968B1, “Vitamin D3 fluorinated analogs” (F. HOFFMANN-LA ROCHE AG, priority 1992, dated 1994)

System: HL-60 tumor cell line
Test: HL-60 Differentiation Assay (NBT reduction)
Format: cell-based
Settings: 4 days incubation; for % Differentiated cells: NBT/TPA
Experimental: HL-60 Differentiation Assay:
The HL-60 tumor cell line was originally derived from a patient with promyelocytic leukemia. The cells are maintained in suspension and diluted to 200,000 cells/ml in 5 ml of suspension media. Compounds were tested at four concentrations in duplicate flasks. Control flasks were supplemented with vehicle alone at the highest concentration such as 0.1% ethanol. Flasks are incubated upright for 4 days in 5% CO2 at 37°C. On day 4, a 1 ml aliquot of cells was centrifuged, the media removed and the cells resuspended in a 0.2 ml of solution of nitroblue tetrazolium/phorbol 12 myristate 13-acetate (NBT/TPA). The cells are suspended and incubated at 37°C for 30 min. prior to transferring to ice. An aliquot is removed and a total of 200 cells is counted using a hemocytometer. Cells without pigmented granules are judged to be undifferentiated while those containing blue black formazan (indicating conversion of NBT) granules were scored as differentiated. Results are expressed as percent differentiated cells by calculating the ratio of the number of dark cells per total number of cells counted.

- EC50 (Homo sapiens, 96 h, HL-60 differentiation, read-out: ED50 (the source's name)): 0.8 nM
SMILES: CC(CC#CC(O)(C(F)(F)F)C(F)(F)F)C1=CCC2C(=CC=C3CC(O)CC(O)C3)CCCC12C (stereo not shown) [Compound D, 1,25-dihydroxy-16-ene-23-yne-26,27-hexafluoro-19-nor-cholecalciferol]
- % Differentiated cells (concentration 10^-8 (unit not given)): 89.5%
- % Differentiated cells (concentration 10^-9 (unit not given)): 56.5%
- % Differentiated cells (concentration 10^-10 (unit not given)): 1.5%
